Laboratory results published in patent US6958360B2, “Attractant pheromone for the Colorado potato beetle” (The United States of America as represented by the …, priority 2001, dated 2005).
Marks after values point to notes of the source that are not given here.

How the values were obtained:
[1] = test system: antennal olfactory receptors (short sensillum on the penultimate antennal segment of a CPB); assay: Single sensillum (single cell) recording of receptor neuron response; parameters: species or system Leptinotarsa decemlineata; conditions: 100 ng source load; solvent control 8
Protocol: (§1) Sensitivity of antennal olfactory receptors for the racemate and optical isomers of the male specific compound were tested using coupled GC/EAD and single sensillum recording techniques. GC/EAD tests involved injection of 1 μl of serial dilutions of 3,7-dimethyl-2-oxo-oct-6-ene-1,3-diol (CPB I).

[2] = test system: CPB adult antenna; assay: Coupled GC/electroantennogram detection (GC/EAD, EAG); parameters: species or system Leptinotarsa decemlineata
Protocol: Vertical bars represent standard errors (N=6, 3 males and 3 females).
GC/EAD analysis of volatile collections: One microlitre samples of volatile collections were injected into a Hewlett Packard™ Model 5890A gas chromatograph (GC) equipped with an HP-5 capillary column (crosslinked 5% PH ME Siloxane; film thickness 0.25 μm; length 30 m; i.d. 0.25 mm) and flame ionization detector (FID). The effluent from the column was split using a Gerstel™ GraphPack-3D/2 splitter with a ratio of ˜1 to the GC (FID): 4 to an electroantennogram preparation of a CPB adult (EAD). The EAD preparation was an adult CPB antenna removed and mounted between two glass capillary electrodes filled with 0.1M NaCl. Ag—AgCl wires in the glass capillaries. An effluent conditioning assembly to carry GC effluent over a CPB antennal preparation, hardware, and software for data collection and analyses using a computer were obtained from SYNTECH (Hilversum, the Netherlands). After an initial temperature of 50° C. held for 2 minutes following injection, the GC oven increased at 15° C./min to 235° C. which was held for 8 minutes.
as §1

[3] = test system: Colorado potato beetle (CPB); assay: Open Y-track olfactometer behavioral bioassay, optical isomers vs solvent control; assay type: in vivo, Leptinotarsa decemlineata; conditions: for orientation preference (in words): serial source loads 0.0001 to 1.0 μg vs solvent control, male and female
Protocol: Chemical blends and plant foliage were tested for behavioral activity in an open Y-track olfactometer modified after Visser and Piron (Visser, J. H., and P. G. M. Piron, Proceedings of the Section Experimental and Applied Entomology of the Netherlands Entomological Society Amsterdam, 9: 41-46 (1998)) and described in detail by Dickens (Dickens, J. C., Agric. Forest Entomol., 1: 47-54 (1999)). In brief, odorous stimuli emanating from volatile collections from CPB males feeding on potato plants or the male-specific compound on filter paper discs (2.5 cm dia.; Whatman™ #1 filter paper) in Ehrlenmeyer flasks were delivered to either side of the device. Hydrocarbon free air that was humidified by passing through distilled water carried the odor molecules to either arm of the bioassay apparatus. Treatments were replenished after 30 min of use in the bioassay apparatus. Airflow was regulated to 1 l/min by flowmeters. Experiments were conducted in a darkened room at 22° C. in which the only source of light was that associated with the bioassay device. For all bioassays, at least 20 males and 20 females were tested.
Volatile collections from male CPB feeding for three hours on a potato plant and serial dilutions of the male specific compound were tested as 10 μl aliquots placed on a filter paper disc as described above. The male specific compound was tested at 1.0 μg/10 μl solvent (hexane) and in a dilution series ranging from 0.0001 to 1.0 μg/10 μl solvent.
Prior to testing at age 7-14 days, unmated insects were held individually in 5.5 oz. cups, provided with fresh potato foliage on a continuous basis, and maintained under incubator conditions of a 16:8 light:dark cycle, 80-90% R.H., and “day” and “night” temperatures of 25° C. and 23° C., respectively. On the day of testing, insects were transferred to smaller 1 oz. cups and held for 1-3 hrs with moist filter paper but no foliage, then held in darkness for an additional 1-2 hrs.
Individual testing in a darkened room at 22° C. began by allowing the beetle to climb onto or be placed approximately midway up the vertical rod of the “T.” In response to a positive phototaxis to light from a flashlight mounted above the “T” and negative geotaxis, the beetles generally climbed upward. Once the insect began waving its antennae, presumably in response to test odors, its forward progress continued. Orientation was scored as soon as the test insect had moved completely from the horizontal to one of the 45 extension arms of the bioassay device. Following each test, the bioassay device was cleaned with acetone to remove contamination left by the insect. For any given series of tests, approximately half were done with the treatment and associated test apparatus on one side, and half were done with them on the other side.
Laboratory bioassays were assessed for significant differences by the hypothesis on binomial proportions based on the standard normal approximation (Brase, C. H., and C. P. Brase (1983), Understanding Statistics, Lexington, Mass.: D. C. Heath).

[4] = test system: Colorado potato beetle (CPB); assay: Field test, baited pitfall traps; assay type: in vivo, Leptinotarsa decemlineata
Protocol: Insects: Insects were maintained under the same regimen as for laboratory bioassays. Prior to release in the field, adult CPB were combined into pint containers with moistened paper and potato foliage in groups of 25. Insects were removed from foliage ca. 3 hours prior to release.
Chemical treatments: (S)-CPB I vs. control. CPB I was dissolved into a carrier solution of 20% polyethylene glycol, 42% methanol, 25% glycerol, and 13% distilled water at a concentration of 1 μg/μl. For treatment lures, 500 μl were injected into 1″ long cigarette filters (500 μg CPBI/lure). Control lures consisted of 1″ cigarette filters treated with 500 μl of the carrier solution. Lures were prepared and placed into plastic zip-lock bags for transport to the field. (S)-CPB I+3-component plant blend vs. 3-component plant blend. (Z)-3-hexenyl acetate, (±)-linalool, and methyl salicylate (10 μl each) were added to 3 ml of the carrier solution for a total concentration of 1%. This solution was split into two 1.5 ml samples and CPB I dissolved into one of the samples at a concentration of 1 μg/μl. One treatment consisted of 500 μl of 1% 3-component plant blend injected into 1″ cigarette filters, 500 μl of 1% 3-component plant blend+1 μg/μl CPB I (500 μg CPB I/lure) injected into 1″ cigarette filters comprised the second treatment. Lures were prepared and placed into zip-lock bags for transport to the field.
Experimental procedure: Six pitfall traps (22 cm diam.×21 cm depth) were set in a hexagonal pattern 6 m diameter in an isolated grass field mowed one day prior to release of insects. One lure was attached to a 1 m vertical yellow posts set through the center of each pitfall trap, with treatment and controls alternating around the hexagonal array. Tacky-trap was laced along the rim of each pitfall trap, and on the center post at trap level, to prevent insect escape. […]
Statistical analysis: Field tests were assessed for significant differences by a paired t-test (Ostle, B., Statistics in Research (1963), 2nd ed., The Iowa State University Press, Ames, Iowa).

## CC(C)=CCC[C@](C)(O)C(=O)CO [(S)-CPB I, (S)-3,7-dimethyl-2-oxo-oct-6-ene-1,3-diol]
[1]
  action potentials during 500 msec following the initial phasic increase: 25 action potentials
[2]; 10 ng injection, males and females combined
  Mean EAG (in words): significantly greater for the (S)-enantiomer than the (R)-enantiomer
[2]; volatiles from potato plants / CPB feeding on plant
  EAD response to compound in volatile collections (in words): a large EAD was consistently present
[3]; both sexes, from threshold through highest source load tested (1 μg)
  individuals attracted: 80% to 90
[3]; female CPB, vs solvent control
  behavioral threshold, females: 0.01 μg source load
[3]; male CPB, vs solvent control
  behavioral threshold, males: 0.001 μg source load
[3]
  orientation preference (in words): attractive
[3]; listed as (S)-enantiomer
  orientation preference (in words): oriented preferentially
[4]; 500 μg CPB I/lure, mean of three replicates, 100 released, control 2.67
  Mean number of CPB captured, Males: 9.00*
[4]; 500 μg CPB I/lure, mean of three replicates, control 1.33
  Mean number of CPB captured, Females: 7.33*
[4]; combined mean of six replicates, control 2.00
  Mean number of CPB captured, Total: 8.17**
